These results are taken from patent US11639352B2, “Benzothiazole compounds for the treatment of autoimmune diseases” (Hoffmann-La Roche Inc., priority 2018, dated 2023).

Broadly, the IC50 is the concentration at which inhibition is half-maximal.

The target of the assay is T1, human TLR8 (Homo sapiens, UniProt Q9NR97).
T1 sequence (Q9NR97 27-1041): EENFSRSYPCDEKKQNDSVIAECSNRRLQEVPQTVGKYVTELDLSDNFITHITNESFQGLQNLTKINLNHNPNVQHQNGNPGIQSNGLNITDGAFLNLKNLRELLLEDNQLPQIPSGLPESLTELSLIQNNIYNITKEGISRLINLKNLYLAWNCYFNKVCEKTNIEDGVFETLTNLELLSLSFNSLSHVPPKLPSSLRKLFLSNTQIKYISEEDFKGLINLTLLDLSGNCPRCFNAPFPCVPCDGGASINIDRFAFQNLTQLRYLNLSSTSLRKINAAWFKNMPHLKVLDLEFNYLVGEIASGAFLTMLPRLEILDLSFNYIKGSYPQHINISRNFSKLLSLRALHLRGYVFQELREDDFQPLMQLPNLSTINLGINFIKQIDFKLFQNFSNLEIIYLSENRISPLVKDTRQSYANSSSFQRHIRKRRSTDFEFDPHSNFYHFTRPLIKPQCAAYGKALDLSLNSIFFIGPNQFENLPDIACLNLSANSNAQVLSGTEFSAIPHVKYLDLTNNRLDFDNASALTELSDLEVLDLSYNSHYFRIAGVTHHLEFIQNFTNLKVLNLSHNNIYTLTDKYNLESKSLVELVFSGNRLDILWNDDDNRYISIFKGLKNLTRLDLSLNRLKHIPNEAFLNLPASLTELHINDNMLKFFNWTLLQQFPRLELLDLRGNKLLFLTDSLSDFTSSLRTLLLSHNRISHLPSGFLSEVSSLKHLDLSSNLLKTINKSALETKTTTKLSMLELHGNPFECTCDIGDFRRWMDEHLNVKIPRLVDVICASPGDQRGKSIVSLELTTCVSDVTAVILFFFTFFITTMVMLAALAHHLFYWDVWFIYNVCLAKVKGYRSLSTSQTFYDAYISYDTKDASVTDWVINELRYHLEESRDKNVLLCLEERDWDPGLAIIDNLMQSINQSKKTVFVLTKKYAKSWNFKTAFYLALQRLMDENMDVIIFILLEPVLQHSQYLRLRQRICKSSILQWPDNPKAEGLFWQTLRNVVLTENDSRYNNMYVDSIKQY
The assay is described as follows: HEK293-Blue-hTLR-8 cells assay (SEAP reporter, R848 stimulation). The assay is classed as cell-based. Conditions: HEK293-Blue-hTLR8 cells, R848 ligand, 20 hrs incubation, antagonist. As for the experimental part: The following tests were carried out in order to determine the activity of the compounds of formula (I) in HEK293-Blue-hTLR-7/8/9 cells assay.
HEK293-Blue-hTLR-8 Cells Assay:
A stable HEK293-Blue-hTLR-8 cell line was purchased from InvivoGen (Cat. #: hkb-htlr8, San Diego, Calif., USA). These cells were originally designed for studying the stimulation of human TLR8 by monitoring the activation of NF-κB. A SEAP (secreted embryonic alkaline phosphatase) reporter gene was placed under the control of the IFN-β minimal promoter fused to five NF-κB and AP-1-binding sites. The SEAP was induced by activating NF-κB and AP-1 via stimulating HEK-Blue hTLR8 cells with TLR8 ligands. Therefore the reporter expression was declined by TLR8 antagonist under the stimulation of a ligand, such as R848, for incubation of 20 hrs. The cell culture supernatant SEAP reporter activity was determined using QUANTI-Blue™ kit (Cat. #: rep-qb1, Invivogen, San Diego, Calif., USA) at a wavelength of 640 nm, a detection medium that turns purple or blue in the presence of alkaline phosphatase.
HEK293-Blue-hTLR8 cells were incubated at a density of 250,000˜450,000 cells/mL in a volume of 170 μL in a 96-well plate in Dulbecco's Modified Eagle's medium (DMEM) containing 4.5 g/L glucose, 50 U/mL penicillin, […], […], 2 mM L-glutamine, 10% (v/v) heat-inactivated fetal bovine serum with addition of 20 μL test compound in a serial dilution in the presence of final DMSO at 1% and 10 μL of 60 uM R848 in above DMEM, perform incubation under 37° C. in a CO2 incubator for 20 hrs. Then 20 μL of the supernatant from each well was incubated with 180 μL Quanti-blue substrate solution at 37° C. for 2 hrs and the absorbance was read at 620˜655 nm using a spectrophotometer. The signalling pathway that TLR8 activation leads to downstream NF-κB activation has been widely accepted, and therefore similar reporter assay was modified for evaluating TLR8 antagonist.

As for `C[C@@H]1CN(c2ccc(C#N)c3ncsc23)C[C@H](C(=O)NCC2CN(C)CCO2)O1` (stereo partly drawn) [Example 12, (2R,6R)-4-(4-cyano-1,3-benzothiazol-7-yl)-6-methyl-N-[(4-methylmorpholin-2-yl)methyl]morpholine-2-carboxamide], the IC50 is < 3 nM.

In the case of `C[C@@H]1CN(c2ccc(C#N)c3ncsc23)C[C@H](CN2CCC(N3CCCCC3)CC2)O1` [Example 7, 7-[(2R,6S)-2-methyl-6-[[4-(1-piperidyl)-1-piperidyl]methyl]morpholin-4-yl]-1,3-benzothiazole-4-carbonitrile], the IC50 was < 3 nM.

On to `C[C@@H]1CN(c2ccc(C#N)c3ncsc23)C[C@H](CN2CC3(CCCNC3)C2)O1` [Example 4, 7-[(2S,6R)-2-(2,8-diazaspiro[3.5]nonan-2-ylmethyl)-6-methyl-morpholin-4-yl]-1,3-benzothiazole-4-carbonitrile], for which 14 nM corresponded to half-maximal inhibition (IC50).

Turning to `C[C@@H]1CN(c2ccc(C#N)c3ncsc23)C[C@H](CN2CCC(N)CC2)O1` [Example 2, 7-[(2S,6R)-2-[(4-amino-1-piperidyl)methyl]-6-methyl-morpholin-4-yl]-1,3-benzothiazole-4-carbonitrile], the midpoint of inhibition, the IC50, lay at 5 nM.

`C[C@@H]1CN(c2ccc(C#N)c3ncsc23)C[C@H](CN2CCC3(CCNC3)CC2)O1` [Example 6, 7-[(2S,6R)-2-(2,8-diazaspiro[4.5]decan-8-ylmethyl)-6-methyl-morpholin-4-yl]-1,3-benzothiazole-4-carbonitrile] gave an IC50 of 22 nM.

Turning to `C[C@@H]1CN(c2ccc(C#N)c3ncsc23)C[C@H](C(=O)NC2CCN(C)CC2)O1` [Example 11, (2R,6R)-4-(4-cyano-1,3-benzothiazol-7-yl)-6-methyl-N-(1-methyl-4-piperidyl)morpholine-2-carboxamide], the IC50 was < 3 nM.

As to `C[C@@H]1CN(c2ccc(C#N)c3ncsc23)C[C@H](CN2[C@@H]3CC[C@H]2C[C@@H](N)C3)O1` [Example 8, Endo-7-[(2S,6R)-2-[[(1R,5S)-3-amino-8-azabicyclo[3.2.1]octan-8-yl]methyl]-6-methyl-morpholin-4-yl]-1,3-benzothiazole-4-carbonitrile], the IC50 is < 3 nM.

Take `C[C@@H]1CN(c2ccc(C#N)c3ncsc23)C[C@H](CN2CCC3(CCCNC3)CC2)O1` [Example 3, 7-[(2S,6R)-2-(2,9-diazaspiro[5.5]undecan-9-ylmethyl)-6-methyl-morpholin-4-yl]-1,3-benzothiazole-4-carbonitrile]: the midpoint of inhibition, the IC50, lay at 12 nM.

The molecule `C[C@@H]1CN(c2ccc(C#N)c3ncsc23)C[C@H](CN2CCC3(CCNCC3)CC2)O1` [Example 5, 7-[(2S,6R)-2-(3,9-diazaspiro[5.5]undecan-3-ylmethyl)-6-methyl-morpholin-4-yl]-1,3-benzothiazole-4-carbonitrile] gave an IC50 of 107 nM.

Regarding `C[C@@H]1CN(c2ccc(C#N)c3ncsc23)C[C@H](CN2CCC3(CCCN(C)C3)CC2)O1` [Example 10, 7-[(2R,6S)-2-methyl-6-[(2-methyl-2,9-diazaspiro[5.5]undecan-9-yl)methyl]morpholin-4-yl]-1,3-benzothiazole-4-carbonitrile], the IC50 is < 3 nM.

With `C[C@@H]1CN(c2ccc(C#N)c3ncsc23)C[C@H](CN2CCC3(CCCNC3)C2)O1` (stereo partly drawn) [Example 1, 7-[(2S,6R)-2-(2,9-diazaspiro[4.5]decan-2-ylmethyl)-6-methyl-morpholin-4-yl]-1,3-benzothiazole-4-carbonitrile], the IC50 was < 3 nM.

The molecule `C[C@@H]1CN(c2ccc(C#N)c3ncsc23)C[C@H](CN2[C@@H]3CC[C@H]2C[C@H](N)C3)O1` [Example 9, Exo-7-[(2S,6R)-2-[[(1S,5R)-3-amino-8-azabicyclo[3.2.1]octan-8-yl]methyl]-6-methyl-morpholin-4-yl]-1,3-benzothiazole-4-carbonitrile] returned an IC50 of 8 nM.
